In ChEMBL document CHEMBL3779792, “Anti-proliferative evaluation of monoterpene derivatives against leukemia” (Eur J Med Chem, 2016):

Assays:
[1] = Cytotoxicity against human NALM6 cells after 72 hrs by Cell-Titer Glo assay; assay type: functional, cell-based; conditions: NALM-6, 72 h
[2] = Cytotoxicity against human SEM cells after 72 hrs by Cell-Titer Glo assay; assay type: functional, cell-based
HepG2 = assay: Cytotoxicity against human HepG2 cells after 72 hrs by Cell-Titer Glo assay; assay type: functional, cell-based; conditions: HepG2, 72 h
Raji = assay: Cytotoxicity against human Raji cells after 72 hrs by Cell-Titer Glo assay; assay type: functional, cell-based
Jurkat = assay: Cytotoxicity against human Jurkat cells after 72 hrs by Cell-Titer Glo assay; assay type: functional, cell-based
BJ = assay: Cytotoxicity against human BJ cells after 72 hrs by Cell-Titer Glo assay; assay type: cell-based
HEK293 = assay: Cytotoxicity against HEK293 cells after 72 hrs by Cell-Titer Glo assay; assay type: cell-based; conditions: Homo sapiens, HEK293, 72 h

| Compound | EC50 [1] | EC50 [2] | EC50 (HepG2) | EC50 (Raji) | EC50 (Jurkat) | EC50 (BJ) | EC50 (HEK293) |
| --- | --- | --- | --- | --- | --- | --- | --- |
| C=C[C@@](C)(/C=C/c1ccc(O)cc1)CC/C=C/C#N | > 43.5 µM | > 36.6 µM | > 52.1 µM | > 26 µM | > 49 µM | > 36.6 µM | > 36.6 µM |
| C=C[C@@](C)(/C=C/c1ccc(O)c(/C=C(\C)C(=O)OCC)c1)CCC=C(C)C | > 7.51 µM | > 36.6 µM | > 52.1 µM | > 26 µM | > 49 µM | > 36.6 µM | > 36.6 µM |
| C=C[C@@](C)(/C=C/c1ccc(Nc2ccc(OC)cc2)cc1)CCC=C(C)C | > 43.5 µM | > 36.6 µM | > 52.1 µM | > 26 µM |  | > 36.6 µM | > 36.6 µM |
| C=C[C@@](C)(/C=C/c1ccc(Nc2ccc(F)cc2)cc1)CCC=C(C)C | > 43.5 µM | > 36.6 µM | > 52.1 µM | > 26 µM |  | > 36.6 µM | > 36.6 µM |
| C=C[C@@](C)(/C=C/c1ccc(Nc2ccc(C(F)(F)F)cc2)cc1)CCC=C(C)C | > 43.5 µM | > 36.6 µM | > 52.1 µM | > 26 µM |  | > 36.6 µM | > 36.6 µM |
| CC(C)=CCC[C@](C)(/C=C/c1ccc(O)cc1)/C=C/c1ccc(C#N)cc1 | > 43.5 µM | > 36.6 µM | > 52.1 µM | > 26 µM |  | > 36.6 µM | > 36.6 µM |
| C=C[C@@](C)(/C=C/c1ccc(O)c(/C=C/c2ccc(Cl)cc2)c1)CCC=C(C)C | > 43.5 µM | > 36.6 µM | > 52.1 µM | > 26 µM | > 49 µM | > 36.6 µM | > 36.6 µM |
| CC(C)=CCC[C@](C)(/C=C/c1ccc(O)cc1)/C=C/c1cccc(F)c1 | > 43.5 µM | > 36.6 µM | > 52.1 µM | > 26 µM |  | > 36.6 µM | > 36.6 µM |
| C=C[C@@](C)(/C=C/c1ccc(Nc2c(F)cc(F)cc2F)cc1)CCC=C(C)C | > 43.5 µM | > 36.6 µM | > 52.1 µM | > 26 µM |  | > 36.6 µM | > 36.6 µM |
| C=C[C@@](C)(/C=C/c1ccc(-c2ccc(Cl)c(Cl)c2)cc1)CCC=C(C)C | > 43.5 µM | > 36.6 µM | > 52.1 µM | > 26 µM |  | > 36.6 µM | > 36.6 µM |
| C=C[C@@](C)(/C=C/c1ccc(Nc2ccccc2)cc1)CCC=C(C)C | > 43.5 µM | > 36.6 µM | > 52.1 µM | > 26 µM |  | > 36.6 µM | > 36.6 µM |
| C=C[C@@](C)(/C=C/c1ccc(-c2cccc(F)c2)cc1)CCC=C(C)C | > 43.5 µM | > 36.6 µM | > 52.1 µM | > 26 µM |  | > 36.6 µM | > 36.6 µM |
| C=C[C@@](C)(/C=C/c1ccc(O)cc1)CC/C=C/C(=O)OCc1ccccc1 | > 43.5 µM | > 36.6 µM | > 52.1 µM | > 26 µM | > 49 µM | > 36.6 µM | > 36.6 µM |
| C=C[C@@](C)(/C=C/c1ccc(O)c(CO)c1)CCC=C(C)C | 16.4 µM | > 36.6 µM | > 52.1 µM | > 26 µM | > 49 µM | > 36.6 µM | > 36.6 µM |
| C=C[C@@](C)(/C=C/c1ccc(O)c(/C=C/C(N)=O)c1)CCC=C(C)C | > 43.5 µM | > 36.6 µM | > 52.1 µM | > 26 µM | > 49 µM | > 36.6 µM | > 36.6 µM |
| CC(C)=CCC[C@](C)(/C=C/c1ccc(O)cc1)/C=C/c1cccc(Cl)c1 | > 43.5 µM | > 36.6 µM | > 52.1 µM | > 26 µM |  | > 36.6 µM | > 36.6 µM |
| COc1ccc(/C=C/[C@@](C)(/C=C/c2ccc(O)c(/C=C/C(C)=O)c2)CCC=C(C)C)cc1 | > 43.5 µM | 8.67 µM | > 52.1 µM | > 26 µM | > 49 µM | 12.3 µM | 14.6 µM |
| C=C[C@@](C)(/C=C/c1ccc(O)cc1)CCC=O | > 43.5 µM | > 36.6 µM | > 52.1 µM | > 26 µM | > 49 µM | > 36.6 µM | > 36.6 µM |
| C=C[C@@](C)(/C=C/c1ccc(O)c(/C=C/c2ccc(Cl)c(Cl)c2)c1)CCC=C(C)C | 7.51 µM | > 7.51 µM | > 52.1 µM | > 26 µM | > 49 µM | > 13 µM | > 36.6 µM |
| C=C[C@@](C)(/C=C/c1ccc(-c2ccc(F)cc2)cc1)CCC=C(C)C | > 43.5 µM | > 36.6 µM | > 52.1 µM | > 26 µM |  | > 36.6 µM | > 36.6 µM |
| CC(C)=CCC[C@@](C)(/C=C/c1ccc(C)cc1)/C=C/c1ccc(O)cc1 | > 43.5 µM | > 36.6 µM | > 52.1 µM | > 26 µM |  | > 36.6 µM | > 36.6 µM |

| Compound | EC50 [1] | EC50 [2] | EC50 (HepG2) | EC50 (Raji) | EC50 (Jurkat) | EC50 (BJ) | EC50 (HEK293) |
| --- | --- | --- | --- | --- | --- | --- | --- |
| CCOC(=O)/C(C)=C/c1cc(/C=C/[C@](C)(/C=C/c2ccc(OC)cc2)CCC=C(C)C)ccc1O | > 43.5 µM | > 36.6 µM | > 52.1 µM | > 26 µM | > 49 µM | > 36.6 µM | > 36.6 µM |
| C=C[C@@](C)(/C=C/c1ccc(O)cc1)CCC(O)C(C)(C)O (stereo partly drawn) | > 43.5 µM | > 36.6 µM | > 52.1 µM | > 26 µM | > 49 µM | > 36.6 µM | > 36.6 µM |
| C=C[C@@](C)(/C=C/c1ccc(Nc2ccc(Cl)c(F)c2)cc1)CCC=C(C)C | > 43.5 µM | > 36.6 µM | > 52.1 µM | > 26 µM |  | > 36.6 µM | > 36.6 µM |
| C=C[C@@](C)(/C=C/c1ccc(Nc2cccc(OC(F)(F)F)c2)cc1)CCC=C(C)C | > 43.5 µM | > 36.6 µM | > 52.1 µM | > 26 µM |  | > 36.6 µM | > 36.6 µM |
| C=C[C@@](C)(/C=C/c1ccc(Nc2cccc(C(F)(F)F)c2)cc1)CCC=C(C)C | > 43.5 µM | > 36.6 µM | > 52.1 µM | > 26 µM |  | > 36.6 µM | > 36.6 µM |
| CC(C)=CCC[C@@](C)(/C=C/c1ccccc1)/C=C/c1ccc(O)cc1 | > 43.5 µM | > 36.6 µM | > 52.1 µM | > 26 µM |  | > 36.6 µM | > 36.6 µM |
| C=C[C@@](C)(/C=C/c1ccc(Nc2cc(C(F)(F)F)cc(C(F)(F)F)c2)cc1)CCC=C(C)C | > 43.5 µM | > 36.6 µM | > 52.1 µM | > 26 µM |  | > 36.6 µM | > 36.6 µM |
| C=C[C@@](C)(/C=C/c1ccc(Nc2cc(F)cc(F)c2)cc1)CCC=C(C)C | > 43.5 µM | > 36.6 µM | > 52.1 µM | > 26 µM |  | > 36.6 µM | > 36.6 µM |
| C=C[C@@](C)(/C=C/c1ccc(-c2ccc(Cl)cc2)cc1)CCC=C(C)C | > 43.5 µM | > 36.6 µM | > 52.1 µM | > 26 µM |  | > 36.6 µM | > 36.6 µM |
| C=C[C@@](C)(/C=C/c1ccc(Nc2ccc(Cl)c(Cl)c2)cc1)CCC=C(C)C | > 43.5 µM | > 36.6 µM | > 52.1 µM | > 26 µM |  | > 36.6 µM | > 36.6 µM |
| C=C[C@@](C)(/C=C/c1ccc(Nc2ccc(F)c(F)c2)cc1)CCC=C(C)C | > 43.5 µM | > 36.6 µM | > 52.1 µM | > 26 µM |  | > 36.6 µM | > 36.6 µM |
| C=C[C@@](C)(/C=C/c1ccc(Nc2cc(F)c(F)cc2F)cc1)CCC=C(C)C | > 43.5 µM | > 36.6 µM | > 52.1 µM | > 26 µM |  | > 36.6 µM | > 36.6 µM |
| C=C[C@@](C)(/C=C/c1ccc(-c2ccccc2)cc1)CCC=C(C)C | > 43.5 µM | > 36.6 µM | > 52.1 µM | > 26 µM |  | > 36.6 µM | > 36.6 µM |
| C=C[C@@](C)(/C=C/c1ccc(Nc2ccc(OC)c(OC)c2)cc1)CCC=C(C)C | > 43.5 µM | > 36.6 µM | > 52.1 µM | > 26 µM |  | > 36.6 µM | > 36.6 µM |
| C=C[C@@](C)(/C=C/c1ccc(Nc2ccc(OC)c(F)c2)cc1)CCC=C(C)C | > 43.5 µM | > 36.6 µM | > 52.1 µM | > 26 µM |  | > 36.6 µM | > 36.6 µM |
| C=C[C@@](C)(/C=C/c1ccc(Nc2ccc(Cl)cc2)cc1)CCC=C(C)C | > 43.5 µM | > 36.6 µM | > 52.1 µM | > 26 µM |  | > 36.6 µM | > 36.6 µM |
| C=C[C@@](C)(/C=C/c1ccc(-c2c(F)c(F)c(F)c(F)c2F)cc1)CCC=C(C)C | > 43.5 µM | > 36.6 µM | > 52.1 µM | > 26 µM |  | > 36.6 µM | > 36.6 µM |
| C=C[C@@](C)(/C=C/c1ccc(Nc2ccc3c(c2)OCO3)cc1)CCC=C(C)C | > 43.5 µM | > 36.6 µM | > 52.1 µM | > 26 µM |  | > 36.6 µM | > 36.6 µM |
| C=C[C@@](C)(/C=C/c1ccc(Nc2ccc(OC(F)(F)F)cc2)cc1)CCC=C(C)C | > 43.5 µM | > 36.6 µM | > 52.1 µM | > 26 µM |  | > 36.6 µM | > 36.6 µM |
| C=C[C@@](C)(/C=C/c1ccc(-c2cccc(Br)c2)cc1)CCC=C(C)C | > 43.5 µM | > 36.6 µM | > 52.1 µM | > 26 µM |  | > 36.6 µM | > 36.6 µM |
| C=C[C@@](C)(/C=C/c1ccc(Nc2cc(F)c(F)c(F)c2)cc1)CCC=C(C)C | > 43.5 µM | > 36.6 µM | > 52.1 µM | > 26 µM |  | > 36.6 µM | > 36.6 µM |
